The results in this text go back to US11274115B2, “Imidazoquinoline derivatives and their use in therapy” (GLAXOSMITHKLINE BIOLOGICALS SA, priority 2016, dated 2022).

The test deals with T1, human TLR7 (Homo sapiens, UniProt Q9NYK1).
T1 construct: host or cells: HEK293
T1 sequence (Q9NYK1 27-1049): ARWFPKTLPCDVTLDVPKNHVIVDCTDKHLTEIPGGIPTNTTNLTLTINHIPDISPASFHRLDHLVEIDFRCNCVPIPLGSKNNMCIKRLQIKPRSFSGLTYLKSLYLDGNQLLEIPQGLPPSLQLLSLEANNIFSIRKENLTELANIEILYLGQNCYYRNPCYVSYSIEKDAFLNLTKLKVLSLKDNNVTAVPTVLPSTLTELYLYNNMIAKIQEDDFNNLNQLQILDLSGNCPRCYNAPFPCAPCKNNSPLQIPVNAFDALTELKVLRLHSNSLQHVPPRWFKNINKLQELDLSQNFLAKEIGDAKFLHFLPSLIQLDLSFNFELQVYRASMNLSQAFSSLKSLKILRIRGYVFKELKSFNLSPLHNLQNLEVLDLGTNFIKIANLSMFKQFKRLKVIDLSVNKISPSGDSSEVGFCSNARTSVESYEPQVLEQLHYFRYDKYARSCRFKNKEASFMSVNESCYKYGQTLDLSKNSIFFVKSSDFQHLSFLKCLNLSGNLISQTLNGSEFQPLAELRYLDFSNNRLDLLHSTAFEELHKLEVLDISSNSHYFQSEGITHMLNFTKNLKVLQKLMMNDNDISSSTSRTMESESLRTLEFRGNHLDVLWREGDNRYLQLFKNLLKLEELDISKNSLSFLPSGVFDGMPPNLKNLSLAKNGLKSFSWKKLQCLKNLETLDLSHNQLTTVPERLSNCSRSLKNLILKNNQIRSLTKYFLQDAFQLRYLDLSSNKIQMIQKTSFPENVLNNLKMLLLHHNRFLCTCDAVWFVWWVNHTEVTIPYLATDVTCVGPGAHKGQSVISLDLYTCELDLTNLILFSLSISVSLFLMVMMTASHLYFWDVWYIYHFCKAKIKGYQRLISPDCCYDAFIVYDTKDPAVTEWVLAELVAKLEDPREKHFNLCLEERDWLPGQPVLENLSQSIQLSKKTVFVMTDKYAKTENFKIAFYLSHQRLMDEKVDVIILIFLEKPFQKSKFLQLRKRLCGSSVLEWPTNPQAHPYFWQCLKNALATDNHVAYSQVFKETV
Description: hTLR7 agonist reporter assay in HEK293 cells (NFκB-SEAP). The class given is cell-based. To be noted: for EC50: read-out: hTLR7 ED50; for hTLR7/8 ratio: hTLR7 ED50 over hTLR8 ED50. The protocol:
Assay for hTLR7 and hTLR8 Agonist Activity in HEK-293 Cells
Determination of TLR agonist activity was performed using the HEK293 […]. This assay measures TLR7 and TLR8 selectivity and potency of the compounds tested. HEK293 cells expressing human TLR7 or TLR8 and NFκB responsive Secreted Embryonic Alkaline Phosphatase (SEAP) reporter gene were obtained from InvivoGen (San Diego, Calif.). These cells were maintained in culture media of Dulbecco's Modified Eagle Medium (DMEM) (Invitrogen, Grand Island, N.Y.), 10% Fetal Bovine Serum (FBS) (Sigma, St. Louis, Mo.) and selection antibiotics (Invitrogen, and Invivogen). HEK293 stably transfected with human TLR7 (hTLR7) or human TLR8 (hTLR8) were stimulated for 24 h with aqueous formulations of test compounds and culture supernatants were analyzed for NFκB activation using the colorimetric SEAP detection kit QuantBlue (InvivoGen).

Where two headings read alike, the source gives them in different places.

For `CCCCCCCC/C=C\CCCCCCCC(=O)OC[C@H](COP(=O)(O)OCCOc1ccc2c(c1)nc(N)c1nc(CCCC)n(CCO)c12)OC(=O)CCCCCCC/C=C\CCCCCCCC` [Example 1], the “selectivity hTLR8/hTLR7, in words” value (Table 1) was “notable selectivity for hTLR8/hTLR7”. Besides, the EC50 reads like this: (Table 1, FIG. 1, 24 h stimulation, aqueous formulations) 1.06 µM; (Table 2, FIG. 3, another occasion, * = only very low levels of NFKB activation were detected) 7 µM; (Table 3, FIG. 5, another occasion, * = only very low levels of NFKB activation were detected) 4.1 µM; (Table 4, FIG. 7, another occasion) 7 µM. Further, the hTLR7/8 ratio worked out at 11.0 (Table 1), 8.9 (Table 2), 6.9 (Table 3) and 9.9 (Table 4). In addition, the “hTLR7 agonist activity, in words” value runs as follows: (Table 3, FIG. 5) “agonist of both TLR7 and TLR8”; (text on Table 1, FIG. 1) “significantly more potent as an agonist of hTLR7 and hTLR8 than Comparative Example 2”; (text on Table 2, FIG. 3) “more active than Comparative Example 2 as an agonist of hTLR7 and hTLR8”.
